Usually IC50 stands for the concentration that inhibits the measured activity by half.

Assay [1] concerns the target acetylcholinesterase (AChE) (Homo sapiens, UniProt P22303). Nature of the assay: biochemical.
Description: Acetylcholinesterase inhibition was determined according to the previously described method [34] with a slight modification. The assay was carried out in Tris-HCl buffer (pH = 8 at 25 °C). The test extracts or compounds were diluted in the same buffer to the appropriate concentrations. Firstly, the reaction mixture containing the sample solution (50 µL), AChE solution (25 µL, 0.25 U/mL), and Ellman’s Reagent (3 mM, 125 µL) was incubated for 15 min at room temperature. Subsequently, 25 µL of ACh iodide (15 mM) was added, and after a further quarter-hour of incubation, the absorbance was estimated at 405 nm. The blank well contained the same amount of Tris-HCl buffer instead of the sample solution. […] All measurements were conducted in triplicate, and the values are presented as IC50 means with standard deviations (SDs). The percent inhibition was calculated using the following formula:Enzyme inhibition activity (%) = (B − S)/B × 100% where B is the blank, and S is the sample absorbance.
The nature of assay [2]: ABTS radical cation scavenging activity (Antioxidant Assay Kit). The conditions noted are these: compounds 1–19; Trolox equivalents; mean ± SD, triplicate.
Description: The potential inhibition of the production of the radical cation was measured using an Antioxidant Assay Kit. In short, the mixed solution, including 10 µL of the test sample, 20 µL of the myoglobin working solution, and 150 µL of the ABTS working solution, was incubated for 5 min. Then, 100 µL of the stop solution was added, and the absorbance was measured at 405 nm. All tests were performed in triplicate. The results were expressed as µM of Trolox equivalents obtained from the standard curve.
Assay [3] in a line: Free radical scavenging activity (DPPH assay). The conditions noted are these: compounds 1–19; Trolox equivalents; mean ± SD, triplicate.
Description: The methanolic solutions of fractions or compounds (130 µL) were added to the DPPH solution (70 µL). The sample’s absorbance was recorded after 30 min of incubation in darkness. All tests were performed in triplicate [33]. The radical scavenging activity of the tested samples was calculated using an equation obtained through linear regression of the Trolox standard curve. The methanolic solutions of fractions or compounds (130 µL) were added to the DPPH solution (70 µL). The sample absorbance was recorded after 30 min of incubation in darkness. All tests were performed in triplicate [33]. The radical scavenging activity of the tested samples was calculated using the equation obtained through linear regression of the Trolox standard curve.
Assay [4] can be described thus: Ferric-reducing antioxidant power method (FRAP). The conditions noted are these: compounds 1–19; ferrous ion equivalents; mean ± SD, triplicate; na = no significant activity.
Description: The ferric-reducing power was measured using the Ferric-Reducing Antioxidant Power Assay Kit. In brief, 10 µL of the tested solution was added to 190 µL of the reaction solutions (containing FRAP Assay Buffer, FeCl3 solution, and FRAP Probe). All of the absorbance values were recorded at 594 nm after 1 h of incubation at 37 °C. The chelating activity was determined using a standard curve and evaluated as mM of ferrous ion equivalents. All tests were performed in triplicate.
The nature of assay [5]: Cupric ion reducing method (CUPRAC). The note with it: compounds 1–19; Trolox equivalents; mean ± SD, triplicate; na = no significant activity. The protocol:
The total antioxidant capacity was determined using an Antioxidant Assay Kit MAK334. In short, 20 µL of each fraction or compound solution was added to 100 µL of the Reaction Mix in the clear, flat-bottomed 96-well plate. The absorbance was measured at 570 nm after 10 min of incubation at room temperature. The results were determined using a standard curve evaluated for Trolox.

Setting [6] is: compounds 1–19, mean ± SD, at least triplicate, read-out: AChE IC50.

Where two headings read alike, the source gives them in different places.

acetylcholinesterase (AChE), sequence (P22303 32-614): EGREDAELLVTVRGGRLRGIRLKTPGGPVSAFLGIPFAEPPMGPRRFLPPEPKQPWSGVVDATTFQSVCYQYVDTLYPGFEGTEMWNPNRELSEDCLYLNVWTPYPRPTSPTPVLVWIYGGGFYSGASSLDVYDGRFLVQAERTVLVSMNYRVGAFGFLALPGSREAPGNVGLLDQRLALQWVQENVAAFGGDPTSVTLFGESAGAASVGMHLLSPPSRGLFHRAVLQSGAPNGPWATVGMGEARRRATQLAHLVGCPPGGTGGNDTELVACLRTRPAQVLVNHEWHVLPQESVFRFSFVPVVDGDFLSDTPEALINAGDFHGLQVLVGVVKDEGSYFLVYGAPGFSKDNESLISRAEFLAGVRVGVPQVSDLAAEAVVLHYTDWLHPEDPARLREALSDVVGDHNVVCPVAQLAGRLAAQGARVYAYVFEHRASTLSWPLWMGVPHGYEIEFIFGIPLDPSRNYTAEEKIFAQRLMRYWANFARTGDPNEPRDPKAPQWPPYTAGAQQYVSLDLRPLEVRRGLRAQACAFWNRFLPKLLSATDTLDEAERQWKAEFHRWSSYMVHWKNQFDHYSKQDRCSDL

On to `O=c1cc(-c2ccccc2)oc2cc(O)cc(O)c12` [Compound 13, 5,7-dihydroxyflavone], for which, in assay [1] (setting [6]), the IC50 stood at 330.1 ± 1.77 µM. Besides, the ABTS in assay [2] turned out to be 728.26 ± 1.08 µM Teq. Also, the DPPH in assay [3] was 227.51 ± 1.83 µM Teq. Moreover, the FRAP in assay [4] came to 0.08 ± 0.01 mM Fe^2+/mL.

Consider `COc1cccc(OC)c1-c1cc(=O)c2c(O)cccc2o1` [Compound 4, 5-hydroxy-2’,6’-dimethoxyflavone], for which the IC50 in assay [1] (setting [6]) was 325.4 ± 3.21 µM. Further, the ABTS in assay [2] worked out at 326.76 ± 6.64 µM Teq. Besides, the DPPH in assay [3] is on record as 28.63 ± 2.40 µM Teq.

Take `COc1ccc(OC)c(-c2cc(=O)c3c(O)cccc3o2)c1OC` [Compound 5, 5-hydroxy-2’,3’,6’-trimethoxyflavone]: the IC50 in assay [1] (setting [6]) came out at 284.6 ± 0.8 µM. For the same molecule, the ABTS in assay [2] turned out to be 280.02 ± 1.55 µM Teq. Also, the DPPH in assay [3] was found to be 34.32 ± 0.97 µM Teq.

Consider `O=c1c(OC2OC(COC3OCC(O)C(O)C3O)C(O)C(O)C2O)c(-c2ccc(O)c(O)c2)oc2cc(O)cc(O)c12` (stereo not drawn) [Compound 18, quercetin 3-O-(6″-O-β-xylopyranosyl)-β-glucopyranoside], for which the IC50 in assay [1] (setting [6]) was determined as 303 ± 3.33 µM. Also, in assay [5], the CUPRAC amounted to 1401.11 ± 2.64 µM Teq. Moreover, in assay [2], the ABTS came out at 1147.52 ± 7.06 µM Teq. Besides, the DPPH in assay [3] is listed as 1336.75 ± 6.33 µM Teq. The FRAP in assay [4] is listed as 63.98 ± 1.75 mM Fe^2+/mL.

On to `COc1ccc2oc(-c3ccccc3O)cc(=O)c2c1O` [Compound 6, 2’,5-dihydroxy-6-methoxyflavone], for which the IC50 in assay [1] (setting [6]) was determined as 391.8 ± 1.06 µM. In assay [5], the CUPRAC turned out to be 366.29 ± 1.24 µM Teq. In addition, the ABTS in assay [2] is listed as 781.28 ± 4.38 µM Teq. In addition, the DPPH in assay [3] is 227.55 ± 2.85 µM Teq. Moreover, the FRAP in assay [4] was 15.81 ± 0.85 mM Fe^2+/mL.

Take `O=c1cc(-c2ccccc2O)oc2cccc(O)c12` [Compound 11, 5,2′-dihydroxyflavone]: the IC50 in assay [1] (setting [6]) turned out to be 371.5 ± 0.66 µM. The CUPRAC in assay [5] is 44.50 ± 1.35 µM Teq. Also, the ABTS in assay [2] worked out at 661.30 ± 3.81 µM Teq. The DPPH in assay [3] worked out at 175.83 ± 2.83 µM Teq. Besides, the FRAP in assay [4] turned out to be 0.07 ± 0.01 mM Fe^2+/mL.

For `O=c1c(OC2OC(COC3OCC(O)C(O)C3O)C(O)C(O)C2O)c(-c2ccc(O)cc2)oc2cc(O)cc(O)c12` (stereo not drawn) [Compound 16, kaempferol-3-O-(6″-O-β-xylopyranosyl)-β-glucopyranoside], the IC50 in assay [1] (setting [6]) was determined as 364.3 ± 1.79 µM. In addition, the CUPRAC in assay [5] was 74.40 ± 1.49 µM Teq. For the same molecule, the ABTS in assay [2] was 717.32 ± 3.47 µM Teq. Moreover, in assay [3], the DPPH came out at 300.29 ± 1.87 µM Teq. In assay [4], the FRAP is 0.67 ± 0.06 mM Fe^2+/mL.

In assay [1], `C[C@@H]1O[C@@H](OC[C@H]2O[C@@H](Oc3c(-c4ccc(O)c(O)c4)oc4cc(O)cc(O)c4c3=O)[C@H](O)[C@@H](O)[C@@H]2O)[C@H](O)[C@H](O)[C@H]1O` [Compound 19, quercetin 3-O-(6″-O-α-rhamnopyranosyl)-β-glucopyranoside] returned an IC50 of 445.32 ± 0.35 µM. Also, in assay [5], the CUPRAC stood at 1258.68 ± 3.49 µM Teq. The ABTS in assay [2] worked out at 1149.16 ± 5.25 µM Teq. Further, the DPPH in assay [3] was determined as 1467.53 ± 5.48 µM Teq. For the same molecule, the FRAP in assay [4] worked out at 52.98 ± 1.35 mM Fe^2+/mL.

`O=c1cc(-c2ccccc2)oc2ccc(OC3OC(COC4OC(CO)C(O)C(O)C4O)C(O)C(O)C3O)c(O)c12` (stereo not drawn) [Compound 10, 5,6-dihydroxyflavone 6-O-(6″-O-glucopyranosyl)-β-glucopyranoside]: the IC50 in assay [1] (setting [6]) turned out to be 376.1 ± 1.87 µM. In addition, the CUPRAC in assay [5] amounted to 19.79 ± 1.03 µM Teq. Besides, in assay [2], the ABTS worked out at 624.94 ± 5.70 µM Teq. The DPPH in assay [3] was 204.31 ± 3.31 µM Teq.

Turning to `O=c1cc(-c2ccccc2)oc2cccc(O)c12` [Compound 2, 5-hydroxyflavone], the IC50 in assay [1] (setting [6]) was 314.4 ± 1.72 µM. Besides, the ABTS in assay [2] was determined as 317.47 ± 3.91 µM Teq. Further, the DPPH in assay [3] was found to be 41.71 ± 2.28 µM Teq.

`O=c1c(O)c(-c2ccc(O)cc2)oc2cc(O)cc(O)c12` [Compound 17, kaempferol]: the IC50 in assay [1] was determined as 276.9 ± 1.41 µM. Moreover, the CUPRAC in assay [5] was 848.64 ± 3.49 µM Teq. The ABTS in assay [2] is reported as 1095.04 ± 1.85 µM Teq. In assay [3], the DPPH amounted to 792.53 ± 7.31 µM Teq. In addition, the FRAP in assay [4] turned out to be 36.87 ± 1.20 mM Fe^2+/mL.

As to `O=c1cc(-c2ccccc2O[C@@H]2O[C@H](CO)[C@@H](O)[C@H](O)[C@H]2O)oc2cccc(O)c12` [Compound 9, 5,2′-dihydroxyflavone 2′-O-β-glucopyranoside], the IC50 in assay [1] (setting [6]) is 399.7 ± 0.64 µM. Further, the CUPRAC in assay [5] was determined as 20.33 ± 1.57 µM Teq. Besides, the ABTS in assay [2] was determined as 204.59 ± 2.26 µM Teq. Further, the DPPH in assay [3] is 170.56 ± 2.49 µM Teq.

`O=c1cc(-c2ccccc2)oc2ccc(O)c(O)c12` [Compound 12, 5,6-dihydroxyflavone]: the IC50 in assay [1] (setting [6]) was 362.2 ± 0.39 µM. Further, the CUPRAC in assay [5] stood at 1060.42 ± 5.33 µM Teq. Moreover, in assay [2], the ABTS is reported as 1052.41 ± 5.51 µM Teq. Moreover, in assay [3], the DPPH is given as 1522.38 ± 7.31 µM Teq. In assay [4], the FRAP came to 54.25 ± 1.03 mM Fe^2+/mL.

For `COc1ccc(O)c(-c2cc(=O)c3c(O)cccc3o2)c1OC` [Compound 7, 5,6′-dihydroxy-2′,3′-dimethoxyflavone], in assay [1] (setting [6]), the IC50 turned out to be 390.8 ± 0.66 µM. Moreover, in assay [2], the ABTS turned out to be 277.56 ± 2.88 µM Teq. Also, in assay [3], the DPPH came out at 37.85 ± 1.90 µM Teq.

On to `CC1OC(OCC2OC(Oc3c(-c4ccc(O)cc4)oc4cc(O)cc(O)c4c3=O)C(O)C(O)C2O)C(O)C(O)C1O` (stereo not drawn) [Compound 15, kaempferol 3-O-(6″-O-α-rhamnopyranosyl)-β-glucopyranoside], for which the IC50 in assay [1] (setting [6]) was 407.4 ± 1.41 µM. Also, the CUPRAC in assay [5] worked out at 56.81 ± 1.52 µM Teq. Also, in assay [2], the ABTS is 702.29 ± 2.47 µM Teq. For the same molecule, in assay [3], the DPPH was found to be 250.72 ± 1.65 µM Teq. The FRAP in assay [4] is recorded as 0.40 ± 0.06 mM Fe^2+/mL.

On to `O=C(CC(=O)c1ccccc1)c1ccccc1` [Compound 1, 1,3-diphenylpropane-1,3-dione], for which the IC50 in assay [1] (setting [6]) was found to be 144.8 ± 1.3 µM. Moreover, the CUPRAC in assay [5] turned out to be 3.18 ± 0.32 µM Teq. In addition, the ABTS in assay [2] came out at 300.12 ± 4.97 µM Teq. Besides, the DPPH in assay [3] was determined as 39.81 ± 2.76 µM Teq.

In the case of `COc1ccccc1-c1cc(=O)c2c(O)cccc2o1` [Compound 3, 5-hydroxy-2′-methoxyflavone], in assay [1] (setting [6]), the concentration for half-maximal inhibition (IC50) was 279.7 ± 0.45 µM. In addition, the ABTS in assay [2] amounted to 330.59 ± 4.04 µM Teq. Also, in assay [3], the DPPH was determined as 39.39 ± 1.59 µM Teq.

The values are drawn from publication PMC9692424, “In Vitro Screening for Anti-Acetylcholinesterase and Antioxidant Activities of Hottonia palustris L. Extracts and Their Unusual Flavonoids” (Molecules, 2022).
